Columns and labels:
Assay type in all cases: in vivo, human
[1] = test system: patients with hypermenorrhea-associated gynecologic diseases; experiment: Phase II clinical trial of JTT-751: safety evaluation (harmful events) in combined use with medicaments affecting the amount of menstrual bleeding; conditions: combined with carbazochrome sodium sulfonate, transamin or ethynylestradiol combinations
Procedure: This test was a three-stage safety and efficacy clinical trial at multi-facilities. The first stage was a pre-observation period (Day −40 to Day −1), the second stage was an administration period (Day 1 to Day 48) (efficacy and safety evaluation period), and the third stage was a post-observation period (Day 49 to Day 63) (efficacy and safety evaluation period). The safety evaluation and efficacy evaluation were performed by multi-facility collaboration, placebo control, random allocation, double-blind trial, and parallel group comparison test. […]
(1) Regarding the subjective symptoms and objective findings, when “expression of new abnormality” was observed between the start of the trial drug administration and nine weeks after Week 0 or at the end of examination after discontinuation as compared to before the start of the trial drug administration. […] (3) Regarding clinical examination, vital sign and standard 12-induced electrocardiogram, when the principal investigator or subinvestigator determined that an abnormality newly recognized between the start of the trial drug administration and nine weeks after Week 0 or at the end of examination after discontinuation, or aggravation of abnormality observed from before the start of the trial drug administration was a clinical problem. […]

[2] = test system: patients with hypermenorrhea and/or patients with hypermenorrhea-associated gynecologic diseases (iron-deficiency anemia patients); experiment: Phase II clinical trial of JTT-751: C-terminal FGF23 value (cFGF23)
Procedure: (§1) This test was a three-stage safety and efficacy clinical trial at multi-facilities. The first stage was a pre-observation period (Day −40 to Day −1), the second stage was an administration period (Day 1 to Day 48) (efficacy and safety evaluation period), and the third stage was a post-observation period (Day 49 to Day 63) (efficacy and safety evaluation period). The safety evaluation and efficacy evaluation were performed by multi-facility collaboration, placebo control, random allocation, double-blind trial, and parallel group comparison test.
(§2) (1) Japanese patients who are 20 or more and less than 65 years old at the time of agreement and can visit an outpatient clinic (2) Patients who have an Hb value (measured using HemoCue® Hb 201 DM analyzer in the institute of clinical practice) of 7.0 g/dL or more and less than 11.0 g/dL on both the observation start date and Week 0, and the difference between the two days is 1.0 g/dL or less (3) Patients with a TIBC of 360 μg/dL or more or a serum ferritin value of less than 12 ng/mL on the observation start date
(§3) The administration period of the trial drug is seven weeks which starts from the next day of the Week 0 visit to the day before the Week 7 visit, provided that the trial drug is not taken on the scheduled Week 3 visit.
(§4) The blood hemoglobin value (Hb), the serum iron level, the serum ferritin value, the total iron-binding capacity (TIBC) and the transferrin saturation rate (TSAT), and the mean corpuscular volume (MCV) were each examined at the observation start date, Week 0, Week 3, Week 7, the end of administration and the consultation at nine weeks after Week 0; the hepcidin concentration (Hepcidin 25) and the serum soluble transferrin receptor concentration (sTfR) were each examined on Week 0, Week 3 and Week 7 and at the end of administration; and the C-terminal FGF23 value (cFGF23) and the intact FGF23 value (iFGF23) were each examined on Week 0 and Week 7 and at the end of administration.

[3] = test system: patients with hypermenorrhea and/or patients with hypermenorrhea-associated gynecologic diseases (iron-deficiency anemia patients); experiment: Phase II clinical trial of JTT-751: intact FGF23 value (iFGF23)
Procedure: as §1, §2, §3, §4

[4] = 250 mg/day, End of administration
[5] = 500 mg/day, End of administration
[6] = 1000 mg/day, End of administration
[7] = 1500 mg/day, End of administration
[8] = End of administration, JTT-751 250 mg group
[9] = End of administration, JTT-751 500 mg group
[10] = End of administration, JTT-751 1000 mg group
[11] = End of administration, JTT-751 1500 mg group
[12] = Week 0 (baseline), JTT-751 250 mg group
[13] = Week 0 (baseline), JTT-751 500 mg group
[14] = Week 0 (baseline), JTT-751 1000 mg group
[15] = Week 0 (baseline), JTT-751 1500 mg group

Ferric citrate [JTT-751]
harmful event caused by combined use with medicaments affecting the amount of menstrual bleeding [1]: no harmful event caused by the combined use was reported | cFGF23, Mean [2, 4]: 214.72 RU/mL | cFGF23, Median [2, 4]: 158.50 RU/mL | cFGF23, Mean ([2]; 250 mg/day, Week 0 (baseline)): 779.17 RU/mL | cFGF23, Median ([2]; 250 mg/day, Week 0 (baseline)): 705.00 RU/mL | cFGF23, Mean ([2]; 250 mg/day, Week 7): 214.72 RU/mL | cFGF23, Median ([2]; 250 mg/day, Week 7): 158.50 RU/mL | cFGF23, Mean [2, 5]: 151.89 RU/mL | cFGF23, Median [2, 5]: 127.50 RU/mL | cFGF23, Mean ([2]; 500 mg/day, Week 0 (baseline)): 1011.06 RU/mL | cFGF23, Median ([2]; 500 mg/day, Week 0 (baseline)): 773.50 RU/mL | cFGF23, Mean ([2]; 500 mg/day, Week 7): 151.89 RU/mL | cFGF23, Median ([2]; 500 mg/day, Week 7): 127.50 RU/mL | cFGF23, Mean [2, 6]: 130.39 RU/mL | cFGF23, Median [2, 6]: 100.00 RU/mL | cFGF23, Mean ([2]; 1000 mg/day, Week 0 (baseline)): 675.16 RU/mL | cFGF23, Median ([2]; 1000 mg/day, Week 0 (baseline)): 564.00 RU/mL | cFGF23, Mean ([2]; 1000 mg/day, Week 7): 130.39 RU/mL | cFGF23, Median ([2]; 1000 mg/day, Week 7): 100.00 RU/mL | cFGF23, Mean [2, 7]: 114.92 RU/mL | cFGF23, Median [2, 7]: 94.20 RU/mL | cFGF23, Mean ([2]; 1500 mg/day, Week 0 (baseline)): 842.52 RU/mL | cFGF23, Median ([2]; 1500 mg/day, Week 0 (baseline)): 777.00 RU/mL | cFGF23, Mean ([2]; 1500 mg/day, Week 7): 114.92 RU/mL | cFGF23, Median ([2]; 1500 mg/day, Week 7): 94.20 RU/mL | C-terminal FGF23 value (cFGF23), time-dependent change ([2]; continuous administration): decreased along with the continuous administration | intact FGF23 value (iFGF23), time-dependent change ([3]; 1000 mg administration group and 1500 mg administration group): decreased along with the continuous administration of the JTT-751 tablet and improved | iFGF23, Mean [3, 8]: 34.74 pg/mL | iFGF23, Median [3, 8]: 33.65 pg/mL | iFGF23, Mean [3, 9]: 41.06 pg/mL | iFGF23, Median [3, 9]: 38.20 pg/mL | iFGF23, Mean [3, 10]: 33.62 pg/mL | iFGF23, Median [3, 10]: 30.40 pg/mL | iFGF23, Mean [3, 11]: 36.30 pg/mL | iFGF23, Median [3, 11]: 35.00 pg/mL | iFGF23, Mean [3, 12]: 36.73 pg/mL | iFGF23, Median [3, 12]: 33.90 pg/mL | iFGF23, Mean [3, 13]: 43.53 pg/mL | iFGF23, Median [3, 13]: 42.05 pg/mL | iFGF23, Mean [3, 14]: 41.93 pg/mL | iFGF23, Median [3, 14]: 42.50 pg/mL | iFGF23, Mean [3, 15]: 46.09 pg/mL | iFGF23, Median [3, 15]: 44.00 pg/mL | iFGF23, Mean ([3]; Week 7, JTT-751 250 mg group): 34.74 pg/mL | iFGF23, Median ([3]; Week 7, JTT-751 250 mg group): 33.65 pg/mL | iFGF23, Mean ([3]; Week 7, JTT-751 500 mg group): 41.06 pg/mL | iFGF23, Median ([3]; Week 7, JTT-751 500 mg group): 38.20 pg/mL | iFGF23, Mean ([3]; Week 7, JTT-751 1000 mg group): 33.62 pg/mL | iFGF23, Median ([3]; Week 7, JTT-751 1000 mg group): 30.40 pg/mL | iFGF23, Mean ([3]; Week 7, JTT-751 1500 mg group): 36.30 pg/mL | iFGF23, Median ([3]; Week 7, JTT-751 1500 mg group): 35.00 pg/mL

Source: patent publication US20210085711A1 (Japan Tobacco Inc., priority 2017, published 2021)
